The values that follow come from patent US12194049B2, “Composition for treating carbapenem antibiotic-resistant Acinetobacter baumannii infection” (priority 2019, dated 2025).

Assay [1] deals with carbapenem antibiotic-resistant Acinetobacter baumannii CR-Ab (157 clinically isolated strains). Description: microbe, parasite or virus in culture. Particulars: read-out: Cumulative microbial inhibition rates (%) against CR-Ab. An excerpt: Strains: 157 clinically isolated strains of carbapenem antibiotic-resistant Acinetobacter baumannii were selected and named as CR-Ab.
Drugs: Sulbactam and ceftazidime were taken and prepared into compositions of different ratios. The method was fixing the amount of sulbactam and gradually reducing the amount of ceftazidime to obtain compositions of sulbactam and ceftazidime at weight ratios of 1:1, 1:0.9, 1:0.8, 1:0.6, 1:0.4, 1:0.2 and 1:0.1, respectively. A sulbactam-only preparation was additionally used as a control.
The cumulative microbial inhibition rate was used to evaluate the microbial inhibition effects of the drugs, respectively. The cumulative microbial inhibition rate was defined as the microbial inhibition rate of a drug at a certain concentration plus all the microbial inhibition rates below that concentration.

For assay [2], the system named is clinically isolated Acinetobacter baumannii. Particulars: found in 2017; cited from earlier work.
Assay [3] concerns CR-Ab pneumonia model mice. The assay is described as follows: Protective effect in CR-Ab pneumonia model mice (7-day survival). The note with it: intraperitoneal, once a day, after 7 days. Type of assay: in vivo, Male C57BL/6 mice.

Usually inhibition stands for the share of the control response that was lost under treatment. Turning to `CC1(C)[C@H](C(=O)O)N2C(=O)C[C@H]2S1(=O)=O` [Single sulbactam, (2S,5R)-3,3-dimethyl-7-oxo-4-thia-1-azabicyclo[3.2.0]heptane-2-carboxylate-4,4-dioxide], in assay [1], the inhibition at 0.125 µg/mL amounted to 0%, the inhibition at 0.25 µg/mL amounted to 0%, the inhibition at 0.5 µg/mL was determined as 0% and the inhibition at 1 µg/mL was 7%. Moreover, in assay [1], the inhibition at 2 µg/mL was determined as 17%, the inhibition at 4 µg/mL came out at 32%, the inhibition at 8 µg/mL amounted to 48% and the inhibition at 16 µg/mL turned out to be 64%. Moreover, in assay [1], the inhibition at 32 µg/mL was 84%, the inhibition at 64 µg/mL was found to be 94%, the inhibition at 128 µg/mL was 100% and the inhibition at 256 µg/mL stood at 100%. For the same molecule, the inhibition at 512 µg/mL in assay [1] was determined as 100%.

As for `CC(C)(O/N=C(\C(=O)N[C@@H]1C(=O)N2C(C(=O)[O-])=C(C[n+]3ccccc3)CS[C@H]12)c1csc(N)n1)C(=O)O` [ceftazidime, (6R,7R)-7-[[(2Z)-2-(2-Aminothiazol-4-yl)-2-[(1-carboxy-1-methylethoxy)imino]acetyl]amino]-8-oxo-3-[(1-pyridinio)methyl]-5-thia-1-azabicyclo[4.2.0]oct-2-ene-2-carboxylate], the resistance rate entry in assay [2] was “up to 72%”.

As to `C[C@@H](O)[C@H]1C(=O)N2C(C(=O)O)=C(S[C@@H]3CN[C@H](C(=O)N(C)C)C3)[C@H](C)[C@H]12` [Meropenem, meropenem], the resistance rate entry in assay [2] is on record as “up to 69.3%”. Besides, the “Survival of CR-Ab pneumonia model mice” value is listed as 3/15 in assay [3] (High dose (30 mg/kg)) and 2/15 in assay [3] (Low dose (10 mg/kg)).
